Reference: patent US10092570B2 (Incyte Corporation, priority 2011, dated 2018)

These molecules were tested against PI3Kδ (p110δ/p85α) (Homo sapiens (Human), UniProt O00329) (assay: Example A3: PI3Kδ scintillation proximity assay). Details: scintillation proximity assay, 20 μM ATP, 4 nM PI3Kδ; read-out: PI3Kδ SPA IC50.
Assay type: biochemical
Protocol: [γ-^33P]ATP (10 mCi/mL) was purchased from Perkin-Elmer (Waltham, Mass.). […] PI3Kδ (p110δ/p85α) was purchased from Millipore (Bedford, Mass.). ATP, MgCl2, DTT, EDTA, MOPS and CHAPS were purchased from Sigma-Aldrich (St. Louis, Mo.). Wheat Germ Agglutinin (WGA) YSi SPA Scintillation Beads was purchased from GE healthcare life sciences (Piscataway, N.J.).
The kinase reaction was conducted in polystyrene 384-well matrix white plate from Thermo Fisher Scientific in a final volume of 25 μL. Inhibitors were first diluted serially in DMSO and added to the plate wells before the addition of other reaction components. The final concentration of DMSO in the assay was 0.5%. The PI3K assays were carried out at room temperature in 20 mM MOPS, pH 6.7, 10 mM MgCl2, 5 mM DTT and CHAPS 0.03%. Reactions were initiated by the addition of ATP, the final reaction mixture consisted of 20 μM PIP2, 20 μM ATP, 0.2 μCi [γ-^33P] ATP, 4 nM PI3Kδ. […] 25 mM EDTA, 400 μM ATP. The final concentration of SPA beads was 1.0 mg/mL. After the plate sealing, plates were shaken overnight at room temperature and centrifuged at 1800 rpm for 10 minutes, the radioactivity of the product was determined by scintillation counting on Topcount (Perkin-Elmer). IC50 determination was performed by fitting the curve of percent control activity versus the log of the inhibitor concentration using the GraphPad Prism 3.0 software.

PI3Kδ (p110δ/p85α), sequence (O00329 whole entry): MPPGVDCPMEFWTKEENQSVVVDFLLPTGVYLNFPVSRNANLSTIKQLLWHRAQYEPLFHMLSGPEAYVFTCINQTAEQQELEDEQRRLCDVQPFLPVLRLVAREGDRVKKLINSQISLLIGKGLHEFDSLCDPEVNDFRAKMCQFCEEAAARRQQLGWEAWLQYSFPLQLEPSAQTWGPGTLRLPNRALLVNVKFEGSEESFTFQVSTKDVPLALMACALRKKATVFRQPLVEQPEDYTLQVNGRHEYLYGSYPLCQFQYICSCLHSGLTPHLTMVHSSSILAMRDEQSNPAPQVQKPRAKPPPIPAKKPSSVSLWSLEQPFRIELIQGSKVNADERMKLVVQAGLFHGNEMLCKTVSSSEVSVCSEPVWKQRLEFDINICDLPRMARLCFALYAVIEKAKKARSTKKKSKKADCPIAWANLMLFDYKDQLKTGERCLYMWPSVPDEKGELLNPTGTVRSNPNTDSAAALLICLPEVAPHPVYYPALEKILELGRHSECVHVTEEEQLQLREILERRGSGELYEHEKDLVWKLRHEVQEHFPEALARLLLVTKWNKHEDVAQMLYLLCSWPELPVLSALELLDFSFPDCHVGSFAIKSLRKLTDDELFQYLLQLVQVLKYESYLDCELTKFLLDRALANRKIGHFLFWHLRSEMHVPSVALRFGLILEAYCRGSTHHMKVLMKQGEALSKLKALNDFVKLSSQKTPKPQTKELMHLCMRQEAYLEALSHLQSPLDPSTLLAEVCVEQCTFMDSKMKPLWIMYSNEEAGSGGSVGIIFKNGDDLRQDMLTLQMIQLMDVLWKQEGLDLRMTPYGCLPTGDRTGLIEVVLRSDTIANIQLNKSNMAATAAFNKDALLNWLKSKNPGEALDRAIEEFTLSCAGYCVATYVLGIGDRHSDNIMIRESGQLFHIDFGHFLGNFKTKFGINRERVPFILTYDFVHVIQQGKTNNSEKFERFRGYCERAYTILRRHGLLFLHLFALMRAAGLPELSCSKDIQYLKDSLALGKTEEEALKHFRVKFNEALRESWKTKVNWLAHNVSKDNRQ
PI3Kδ (p110δ/p85α), sequence (P27986 whole entry partner): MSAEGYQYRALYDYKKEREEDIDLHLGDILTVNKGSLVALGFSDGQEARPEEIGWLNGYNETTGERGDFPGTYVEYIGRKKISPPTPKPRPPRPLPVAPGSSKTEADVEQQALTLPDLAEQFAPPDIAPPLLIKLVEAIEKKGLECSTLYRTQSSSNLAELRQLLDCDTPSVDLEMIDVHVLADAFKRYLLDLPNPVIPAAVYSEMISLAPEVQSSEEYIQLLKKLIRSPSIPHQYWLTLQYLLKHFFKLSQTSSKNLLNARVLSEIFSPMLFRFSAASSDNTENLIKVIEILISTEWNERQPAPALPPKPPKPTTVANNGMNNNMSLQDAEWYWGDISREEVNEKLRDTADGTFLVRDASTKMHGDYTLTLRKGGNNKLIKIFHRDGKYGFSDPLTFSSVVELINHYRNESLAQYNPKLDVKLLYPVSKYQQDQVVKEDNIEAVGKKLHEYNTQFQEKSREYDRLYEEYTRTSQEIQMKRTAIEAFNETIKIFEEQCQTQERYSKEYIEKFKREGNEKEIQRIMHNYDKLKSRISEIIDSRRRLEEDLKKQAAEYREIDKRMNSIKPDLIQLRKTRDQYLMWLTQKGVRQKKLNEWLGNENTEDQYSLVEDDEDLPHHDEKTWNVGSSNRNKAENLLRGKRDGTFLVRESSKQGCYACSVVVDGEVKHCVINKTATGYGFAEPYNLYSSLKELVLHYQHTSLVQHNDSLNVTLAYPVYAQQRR

| IC50 [µM] | Compound |
| --- | --- |
| < 0.01 | CCOc1c(C(C)n2nc(C)c3c(N)ncnc32)cc(C)c(C#N)c1-c1cnn(C)c1 (racemic) [Example 343, 4-[1-(4-amino-3-methyl-1H-pyrazolo[3,4-d]pyrimidin-1-yl)ethyl]-3-ethoxy-6-methyl-2-(1-methyl-1H-pyrazol-4-yl)benzonitrile] |
| < 0.01 | COc1c(C(C)n2nc(C)c3c(N)ncnc32)cc(Cl)c(C)c1-c1cncc(C(=O)N(C)C)c1 (single isomer, unassigned) [Example 65, 5-{3-[1-(4-amino-3-methyl-1H-pyrazolo[3,4-d]pyrimidin-1-yl)ethyl]-5-chloro-2-methoxy-6-methylphenyl}-N,N-dimethylnicotinamide] |
| < 0.01 | CCOc1c(C(C)n2nc(C)c3c(N)ncnc32)cc(Cl)c(C)c1C1CN(CC(C)(C)O)C1 (single isomer, unassigned) [Example 98, 1-(3-{3-[1-(4-Amino-3-methyl-1H-pyrazolo[3,4-d]pyrimidin-1-yl)ethyl]-5-chloro-2-ethoxy-6-methylphenyl}azetidin-1-yl)-2-methylpropan-2-ol] |
| < 0.01 | COc1c(C(C)n2nc(C)c3c(N)ncnc32)cc(Cl)c(C)c1C1CN(CC#N)C1 (single isomer, unassigned) [Example 105, (3-{3-[1-(4-Amino-3-methyl-1H-pyrazolo[3,4-d]pyrimidin-1-yl)ethyl]-5-chloro-2-methoxy-6-methylphenyl}azetidin-1-yl)acetonitrile] |
| < 0.01 | COc1c(C(C)n2nc(C)c3c(N)ncnc32)cc(Cl)c(C)c1C1CN(CC(F)(F)F)C1 (single isomer, unassigned) [Example 108, 1-(1-{5-Chloro-2-methoxy-4-methyl-3-[1-(2,2,2-trifluoroethyl)azetidin-3-yl]phenyl}ethyl)-3-methyl-1H-pyrazolo[3,4-d]pyrimidin-4-amine] |
| < 0.01 | COc1c(C(C)n2nc(C)c3c(N)ncnc32)cc(Cl)c(C)c1C1CN(C[C@@H](O)C(F)(F)F)C1 (single isomer, unassigned) [Example 115] |
| < 0.01 | COc1c(C(C)n2nc(C)c3c(N)ncnc32)cc(Cl)c(C)c1C1CN(C(=O)c2cnn(C)c2)C1 (single isomer, unassigned) [Example 117, 1-[1-(5-Chloro-2-methoxy-4-methyl-3-{1-[(1-methyl-1H-pyrazol-4-yl)carbonyl]azetidin-3-yl}phenyl)ethyl]-3-methyl-1H-pyrazolo[3,4-d]pyrimidin-4-amine] |
| < 0.01 | COc1c(C(C)n2nc(C)c3c(N)ncnc32)cc(Cl)c(C)c1C1CN(C(=O)[C@H](C)O)C1 (single isomer, unassigned) [Example 118] |
| < 0.01 | COc1c(C(C)n2nc(C)c3c(N)ncnc32)cc(Cl)c(C)c1C1CN(C2(CC#N)CCC2)C1 (single isomer, unassigned) [Example 161, [1-(3-{3-[1-(4-Amino-3-methyl-1H-pyrazolo[3,4-d]pyrimidin-1-yl)ethyl]-5-chloro-2-methoxy-6-methylphenyl}azetidin-1-yl)cyclobutyl]acetonitrile] |
| < 0.01 | CNC(=O)CCc1c(C)c(Cl)cc(C(C)n2nc(C)c3c(N)ncnc32)c1OC (single isomer, unassigned) [Example 179, 3-(3-(1-(4-Amino-3-methyl-1H-pyrazolo[3,4-d]pyrimidin-1-yl)ethyl)-5-chloro-2-methoxy-6-methylphenyl)-N-methylpropanamide 2,2,2-trifluoroacetate] |
| < 0.01 | COc1c(C(C)n2nc(C)c3c(N)ncnc32)cc(Cl)c(C)c1-c1cnn(C2CCN(C)CC2)c1 (single isomer, unassigned) [Example 181, 1-(1-(5-Chloro-2-methoxy-4-methyl-3-(1-(1-methylpiperidin-4-yl)-1H-pyrazol-4-yl)phenyl)ethyl)-3-methyl-1H-pyrazolo[3,4-d]pyrimidin-4-amine] |
| < 0.01 | COc1c(C(C)n2nc(C)c3c(N)ncnc32)cc(Cl)c(C)c1-c1cnn(C2CCN(C(C)=O)CC2)c1 (single isomer, unassigned) [Example 182, 1-(1-{3-[1-(1-Acetylpiperidin-4-yl)-1H-pyrazol-4-yl]-5-chloro-2-methoxy-4-methylphenyl}ethyl)-3-methyl-1H-pyrazolo[3,4-d]pyrimidin-4-amine] |
| < 0.01 | COc1c(C(C)n2nc(C)c3c(N)ncnc32)cc(Cl)c(C)c1-c1cnn(CCN(C)C)c1 (single isomer, unassigned) [Example 183, 1-[1-(5-Chloro-3-{1-[2-(dimethylamino)ethyl]-1H-pyrazol-4-yl}-2-methoxy-4-methylphenyl)ethyl]-3-methyl-1H-pyrazolo[3,4-d]pyrimidin-4-amine] |
| < 0.01 | CCOc1c(C(C)n2nc(C)c3c(N)ncnc32)cc(Cl)c(C)c1-c1cnn(C)c1 (single isomer, unassigned) [Example 197, 1-(1-(5-chloro-2-ethoxy-4-methyl-3-(1-methyl-1H-pyrazol-4-yl)phenyl)ethyl)-3-methyl-1H-pyrazolo[3,4-d]pyrimidin-4-amine] |
| < 0.01 | CCOc1c(C(C)n2nc(C)c3c(N)ncnc32)cc(Cl)c(C#N)c1C1CNC1 (single isomer, unassigned) [Example 212, 4-[1-(4-Amino-3-methyl-1H-pyrazolo[3,4-d]pyrimidin-1-yl)ethyl]-2-azetidin-3-yl-6-chloro-3-ethoxybenzonitrile] |
| < 0.01 | CCOc1c(C(C)n2nc(C)c3c(N)ncnc32)cc(Cl)c(C#N)c1C1CN(CC2CC2)C1 (single isomer, unassigned) [Example 217, 4-[1-(4-Amino-3-methyl-1H-pyrazolo[3,4-d]pyrimidin-1-yl)ethyl]-6-chloro-2-[1-(cyclopropylmethyl)azetidin-3-yl]-3-ethoxybenzonitrile] |
| < 0.01 | CCOc1c(C(C)n2nc(C)c3c(N)ncnc32)cc(Cl)c(C#N)c1C1CN(C(C)CO)C1 (single isomer, unassigned) [Example 224, 4-[1-(4-Amino-3-methyl-1H-pyrazolo[3,4-d]pyrimidin-1-yl)ethyl]-6-chloro-3-ethoxy-2-[1-(2-hydroxy-1-methylethyl)azetidin-3-yl]benzonitrile] |
| < 0.01 | CCOc1c(C(C)n2nc(C)c3c(N)ncnc32)cc(Cl)c(C#N)c1C1CN(C2CCOC2)C1 (single isomer, unassigned) [Example 228, 4-[1-(4-Amino-3-methyl-1H-pyrazolo[3,4-d]pyrimidin-1-yl)ethyl]-6-chloro-3-ethoxy-2-[1-(tetrahydrofuran-3-yl)azetidin-3-yl]benzonitrile] |
| < 0.01 | CCOc1c(C(C)n2nc(C)c3c(N)ncnc32)cc(Cl)c(C#N)c1C1CN(C2CCOCC2)C1 (single isomer, unassigned) [Example 229, 4-[1-(4-Amino-3-methyl-1H-pyrazolo[3,4-d]pyrimidin-1-yl)ethyl]-6-chloro-3-ethoxy-2-[1-(tetrahydro-2H-pyran-4-yl)azetidin-3-yl]benzonitrile] |
| < 0.01 | CCOc1c(C(C)n2nc(C)c3c(N)ncnc32)cc(Cl)c(C#N)c1C1CN(CC2CCOC2)C1 (single isomer, unassigned) [Example 231, 4-[1-(4-Amino-3-methyl-1H-pyrazolo[3,4-d]pyrimidin-1-yl)ethyl]-6-chloro-3-ethoxy-2-[1-(tetrahydrofuran-3-ylmethyl)azetidin-3-yl]benzonitrile] |
| < 0.01 | CCOc1c(C(C)n2nc(C)c3c(N)ncnc32)cc(Cl)c(C#N)c1C1CN(CCC(F)(F)F)C1 (single isomer, unassigned) [Example 234, 4-[1-(4-Amino-3-methyl-1H-pyrazolo[3,4-d]pyrimidin-1-yl)ethyl]-6-chloro-3-ethoxy-2-[1-(3,3,3-trifluoropropyl)azetidin-3-yl]benzonitrile] |
| < 0.01 | CCOc1c(C(C)n2nc(C)c3c(N)ncnc32)cc(Cl)c(C#N)c1C1CN(CC#N)C1 (single isomer, unassigned) [Example 235, 4-[1-(4-Amino-3-methyl-1H-pyrazolo[3,4-d]pyrimidin-1-yl)ethyl]-6-chloro-2-[1-(cyanomethyl)azetidin-3-yl]-3-ethoxybenzonitrile] |
| < 0.01 | CCOc1c(C(C)n2nc(C)c3c(N)ncnc32)cc(Cl)c(C#N)c1C1CN(C(C)(C)CO)C1 (single isomer, unassigned) [Example 237, 4-[1-(4-Amino-3-methyl-1H-pyrazolo[3,4-d]pyrimidin-1-yl)ethyl]-6-chloro-3-ethoxy-2-[1-(2-hydroxy-1,1-dimethylethyl)azetidin-3-yl]benzonitrile] |
| < 0.01 | CCOc1c(C(C)n2nc(C)c3c(N)ncnc32)cc(Cl)c(C#N)c1C1CN(C(C)(C)C(N)=O)C1 (single isomer, unassigned) [Example 239, 2-(3-{3-[1-(4-Amino-3-methyl-1H-pyrazolo[3,4-d]pyrimidin-1-yl)ethyl]-5-chloro-6-cyano-2-ethoxyphenyl}azetidin-1-yl)-2-methylpropanamide] |

| Compound | IC50 [µM] |
| --- | --- |
| CCOc1c(C(C)n2nc(C)c3c(N)ncnc32)cc(Cl)c(C)c1-c1ccnc(C(=O)N(C)C)c1 (single isomer, unassigned) [Example 201] | < 0.01 |
